Where two headings read alike, the source gives them in different places.
What was measured:
[1] = molecular target: PTR-1 (Trypanosoma brucei brucei, UniProt O76290); assay: Individual bead pull down with competing free ligand; details: competing free ligand 100 μM; bead = immobilized compound of the row; T. brucei lysate; read-out: % Inhibition of protein binding to bead, PTR-1, T. brucei
Description: (§1) Antifolate compounds were immobilized onto NHS-activated sepharose beads/reverse sepharose beads through amide coupling via either an amino or carboxyl group (see Figure 3). The reaction was monitored by observing the disappearance of test compound by LCMS, after which the unreacted coupling sites were capped with NHS-acetate or aminoethanol.
(§2) Folate metabolizing enzymes are not highly abundant proteins,[19],[20] potentially making their identification by MS difficult. Beads will not only pull down the low abundant high affinity binders but also attract highly abundant, low affinity binders or so-called nonspecific binders. Sometimes, the nonspecific high abundant proteins can mask true binders. The target identification approach used in this study overcomes this issue by performing competition studies. Various concentrations of the free unmodified inhibitor (test compound) were preincubated with the lysate, prior to addition of the beads derivatized with immobilized compounds. Following washing of the bound proteins from the beads and tryptic digest, the peptides were labeled using the TMTs and then pooled. Differences in peptide abundance were analyzed by fragmentation of the isotope-coded isobaric tags in the MS/MS spectra (Figure 5).[9],[11],[12],[21] While the competition experiments with test compound confirm specific binding, it is also possible that some proteins will have a stronger binding interaction with the derivatized beads than the competing test compound, due to subtle differences in the interactions between the immobilized compound and the test compound with the target protein.

[2] = molecular target: DHFR-TS (Trypanosoma brucei brucei, UniProt Q27783); assay: as above; details: competing free ligand 100 μM; bead = immobilized compound of the row; T. brucei lysate; read-out: % Inhibition of protein binding to bead, DHFR-TS, T. brucei
Description: as §1, §2

[3] = molecular target: human enzyme (DHCH); parameters: method as in ref 8 (SI); details: ref 8 (SI); cited from earlier work
[4] = molecular target: leishmania DHCH enzyme; parameters: method as in ref 10 (SI); details: ref 10 (SI); cited from earlier work
[5] = molecular target: DHFR-TS (Leishmania major, UniProt P07382); assay: biochemical; details: competing free ligand 100 μM; bead = immobilized compound of the row; L. major lysate; read-out: % Inhibition of protein binding to bead, DHFR-TS, L. major
[6] = system: IRON/ASCORBATE OXIDOREDUCTASE FAMILY PROTEIN, PUTA (Tb427.02.6180); assay: Multitargeted bead mixture competition; type: binding, T. brucei; details: multitargeted bead mixture; free ligand 100 μM; T. brucei lysate; Tb427.02.6180
[7] = system: TB09.211.1690; assay: Multitargeted bead mixture competition; type: binding; details: free ligand 100 μM, T. brucei lysate
[8] = system: PEPTIDYL-PROLYL CIS-TRANS ISOMERASE (CYCLOPHILIN- (TB427TMP.211.1350)); assay: Multitargeted bead mixture competition; type: binding; details: free ligand 100 μM, T. brucei lysate
[9] = system: TB927.8.6460; assay: Multitargeted bead mixture competition; type: binding, T. brucei; details: multitargeted bead mixture; free ligand 100 μM; T. brucei lysate; TB927.8.6460
[10] = molecular target: PTERIDINE REDUCTASE (TB927.8.2210) (Trypanosoma brucei brucei, UniProt O76290); assay: Multitargeted bead mixture competition; type: binding, T. brucei; details: multitargeted bead mixture; free ligand 100 μM; T. brucei lysate; TB927.8.2210 PTERIDINE REDUCTASE
[11] = system: NGG1 INTERACTING FACTOR 3-LIKE (Tb427tmp.02.5000); type: binding; details: multitargeted bead mixture; free ligand 100 μM; T. brucei lysate; Tb427tmp.02.5000
[12] = system: TB427.04.1870; assay: Multitargeted bead mixture competition; type: binding; details: free ligand 100 μM, T. brucei lysate
[13] = system: CHOLINE KINASE (TB427TMP.18.0017); assay: Multitargeted bead mixture competition; type: binding, T. brucei; details: multitargeted bead mixture; free ligand 100 μM; T. brucei lysate; TB427TMP.18.0017 CHOLINE KINASE
[14] = system: TB927.7.1340; assay: Multitargeted bead mixture competition; type: binding; details: free ligand 100 μM, T. brucei lysate
[15] = molecular target: GLYCERALDEHYDE 3-PHOSPHATE DEHYDROGENASE, GLYCOSOM (TB427.06.4300) (Trypanosoma brucei brucei, UniProt P22512); assay: Multitargeted bead mixture competition; type: binding, T. brucei; details: multitargeted bead mixture; free ligand 100 μM; T. brucei lysate; TB427.06.4300 GAPDH
[16] = system: TB927.8.6760; assay: Multitargeted bead mixture competition; type: binding; details: free ligand 100 μM, T. brucei lysate
[17] = molecular target: T1, PTR1 (Leishmania major, UniProt Q01782); assay: biochemical; details: competing free ligand 100 μM; bead = immobilized compound of the row; L. major lysate; read-out: % Inhibition of protein binding to bead, PTR-1, L. major
T1 sequence (Q01782 1-288): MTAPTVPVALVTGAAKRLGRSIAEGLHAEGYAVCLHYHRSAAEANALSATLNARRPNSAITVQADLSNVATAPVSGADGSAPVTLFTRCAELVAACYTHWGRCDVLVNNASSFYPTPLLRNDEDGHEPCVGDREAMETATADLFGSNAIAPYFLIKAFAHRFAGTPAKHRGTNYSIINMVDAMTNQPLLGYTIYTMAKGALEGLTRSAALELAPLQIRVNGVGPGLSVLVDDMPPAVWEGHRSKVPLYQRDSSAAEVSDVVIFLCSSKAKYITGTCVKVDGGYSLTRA

[18] = system: HYPOTHETICAL PROTEIN, CONSERVED (TB427.05.3680); assay: Multitargeted bead mixture competition; type: binding; details: free ligand 100 μM, T. brucei lysate
[19] = system: HYPOTHETICAL PROTEIN, CONSERVED (Tb427.10.6100); assay: Multitargeted bead mixture competition; type: binding; details: free ligand 100 μM, T. brucei lysate
[20] = system: PROTEIN KINASE, PUTATIVE (Tb427.03.1570); assay: Multitargeted bead mixture competition; type: binding; details: free ligand 100 μM, T. brucei lysate
[21] = system: BRANCHED-CHAIN AMINO ACID AMINOTRANSFERASE, PUTATI (TB427.02.4590); assay: Multitargeted bead mixture competition; type: binding; details: free ligand 100 μM, T. brucei lysate
[22] = system: SUCCINYL-COA SYNTHETASE ALPHA SUBUNIT, PUTATIVE (Tb427.03.2230); assay: Multitargeted bead mixture competition; type: binding; details: free ligand 100 μM, T. brucei lysate
[23] = system: HYPOTHETICAL PROTEIN, CONSERVED (TB427.03.2670); assay: Multitargeted bead mixture competition; type: binding; details: free ligand 100 μM, T. brucei lysate
[24] = system: TB11.03.0290; assay: Multitargeted bead mixture competition; type: binding, T. brucei; details: multitargeted bead mixture; free ligand 100 μM; T. brucei lysate; TB11.03.0290
[25] = system: ACETYLTRANSFERASE, PUTATIVE (Tb427.08.3310); assay: Multitargeted bead mixture competition; type: binding; details: free ligand 100 μM, T. brucei lysate
[26] = system: PHOSPHATIDYLINOSITOL-4-PHOSPHATE 5-KINASE, PUTATIV (TB427.10.3890); assay: Multitargeted bead mixture competition; type: binding; details: free ligand 100 μM, T. brucei lysate
[27] = molecular target: TbTS; details: recombinant protein assay; ref 6 (SI); read-out: Ki, recombinant TbTS; cited from earlier work
[28] = molecular target: DIHYDROFOLATE REDUCTASE-T[…] (TB427.07.5480) (Trypanosoma brucei brucei, UniProt Q27783); assay: Multitargeted bead mixture competition; type: binding; details: multitargeted bead mixture; free ligand 100 μM; T. brucei lysate; TB427.07.5480 DHFR-TS
[29] = molecular target: T2, MTHFS, the 5-formyl-THF-cyclo-ligase (Homo sapiens, UniProt P49914); assay: Multitargeted bead mixture competition, HeLa cell extract; type: binding; details: bead mixture; HeLa cell extract
T2 sequence (P49914 1-203): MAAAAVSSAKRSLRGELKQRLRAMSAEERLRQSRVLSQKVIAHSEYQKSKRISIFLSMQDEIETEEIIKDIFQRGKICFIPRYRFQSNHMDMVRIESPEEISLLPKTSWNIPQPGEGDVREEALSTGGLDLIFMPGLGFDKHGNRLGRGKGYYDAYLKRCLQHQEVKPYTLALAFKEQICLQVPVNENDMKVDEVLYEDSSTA

[30] = system: T. brucei lysate proteins; type: binding, Trypanosoma brucei; details: X016405, bead mixture, free compound 100.0uM, Trypanosoma brucei

Sequence of PTR-1 (O76290 entry or part of it): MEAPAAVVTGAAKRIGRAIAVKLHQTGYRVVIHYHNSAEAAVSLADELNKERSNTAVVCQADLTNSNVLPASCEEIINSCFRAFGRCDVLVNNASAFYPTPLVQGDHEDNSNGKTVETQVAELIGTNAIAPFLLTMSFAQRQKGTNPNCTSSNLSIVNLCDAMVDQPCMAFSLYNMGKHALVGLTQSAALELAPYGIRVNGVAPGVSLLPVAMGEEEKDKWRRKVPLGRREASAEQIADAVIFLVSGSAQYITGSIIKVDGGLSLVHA
Sequence of DHFR-TS (Trypanosoma brucei brucei, UniProt Q27783) (Q27783 whole entry): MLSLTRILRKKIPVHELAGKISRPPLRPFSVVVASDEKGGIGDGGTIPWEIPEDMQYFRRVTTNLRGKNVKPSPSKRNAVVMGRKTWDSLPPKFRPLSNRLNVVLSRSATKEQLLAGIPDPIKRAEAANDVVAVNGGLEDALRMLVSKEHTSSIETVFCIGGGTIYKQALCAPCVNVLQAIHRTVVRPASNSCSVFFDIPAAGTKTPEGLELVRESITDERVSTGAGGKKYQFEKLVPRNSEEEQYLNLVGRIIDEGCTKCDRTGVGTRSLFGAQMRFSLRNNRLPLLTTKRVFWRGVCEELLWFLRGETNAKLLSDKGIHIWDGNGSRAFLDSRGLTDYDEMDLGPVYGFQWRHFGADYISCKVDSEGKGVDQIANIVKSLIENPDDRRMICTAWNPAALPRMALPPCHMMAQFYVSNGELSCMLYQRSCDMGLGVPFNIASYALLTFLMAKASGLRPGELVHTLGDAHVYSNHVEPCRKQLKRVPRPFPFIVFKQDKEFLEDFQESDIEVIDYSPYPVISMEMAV
Sequence of DHFR-TS (Leishmania major, UniProt P07382) (P07382 whole entry): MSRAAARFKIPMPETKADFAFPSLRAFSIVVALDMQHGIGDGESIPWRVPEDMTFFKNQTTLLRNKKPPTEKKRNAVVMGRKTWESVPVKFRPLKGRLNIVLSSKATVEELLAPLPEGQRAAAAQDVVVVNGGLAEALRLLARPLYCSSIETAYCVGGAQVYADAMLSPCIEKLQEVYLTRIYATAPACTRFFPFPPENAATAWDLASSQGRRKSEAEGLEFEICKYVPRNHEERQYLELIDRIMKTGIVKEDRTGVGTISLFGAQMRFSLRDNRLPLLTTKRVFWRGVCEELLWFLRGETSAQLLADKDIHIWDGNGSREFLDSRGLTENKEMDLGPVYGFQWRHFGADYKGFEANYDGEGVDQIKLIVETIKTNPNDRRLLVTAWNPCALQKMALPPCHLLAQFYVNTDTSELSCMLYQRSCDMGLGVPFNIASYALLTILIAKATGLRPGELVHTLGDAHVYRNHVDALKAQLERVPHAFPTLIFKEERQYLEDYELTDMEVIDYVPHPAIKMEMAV
Sequence of PTERIDINE REDUCTASE (TB927.8.2210) (O76290 entry or part of it): as the sequence (O76290 entry or part of it) above
Sequence of UniProt P22512 (P22512 whole entry): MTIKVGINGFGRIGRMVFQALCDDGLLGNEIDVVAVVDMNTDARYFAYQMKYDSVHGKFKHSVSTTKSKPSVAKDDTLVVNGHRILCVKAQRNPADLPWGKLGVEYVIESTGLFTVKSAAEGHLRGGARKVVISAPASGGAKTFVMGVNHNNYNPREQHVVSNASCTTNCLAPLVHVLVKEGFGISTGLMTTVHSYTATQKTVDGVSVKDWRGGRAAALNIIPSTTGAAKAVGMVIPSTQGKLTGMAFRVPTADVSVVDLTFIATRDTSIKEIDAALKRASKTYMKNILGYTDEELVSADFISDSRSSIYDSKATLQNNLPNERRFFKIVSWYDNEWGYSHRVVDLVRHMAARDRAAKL
Sequence of UniProt Q27783 (Q27783 whole entry): as the sequence (Q27783 whole entry) above

NCCOCCOc1ccc(Cc2cnc(N)nc2N)cc1 [compound 13]
inhibition at 100 µM [1]: 51% | inhibition at 100 µM [2]: 75%

NCCOCCOc1cccc(Cc2cnc(N)nc2N)c1 [compound 12]
inhibition at 100 µM [1]: 51% | inhibition at 100 µM [2]: 79%

NCCCCCOc1ccc(Cc2cnc(N)nc2N)cc1 [compound 10]
inhibition at 100 µM [1]: 77% | inhibition at 100 µM [2]: 84%

NCCCCCOc1cccc(Cc2cnc(N)nc2N)c1 [compound 11]
inhibition at 100 µM [1]: 56% | inhibition at 100 µM [2]: 87%

Nc1nc2c(c(=O)[nH]1)N1C(=O)N(c3ccc(C(=O)NC(CCC(=O)O)C(=O)O)cc3)CC1CN2 (stereo not drawn) [compound 4]
Ki [3]: 18 ± 5 nM | Ki [4]: 105 ± 2 nM

Nc1nc(=O)c2nc(CNc3ccc(C(=O)N[C@@H](CCC(=O)O)C(=O)O)cc3)cnc2[nH]1 [Folic acid]
inhibition at 100 µM [1]: 92% | inhibition at 100 µM [2]: 77% | inhibition at 100 µM [5]: 85%

Cc1ccc2nc(N)[nH]c(=O)c2c1Sc1ccncc1 [NTX, nolatrexed]
percentage of competition from bead binding [6]: 52% | percentage of competition from bead binding [7]: -7% | percentage of competition from bead binding [8]: 1% | percentage of competition from bead binding [9]: 68% | percentage of competition from bead binding [10]: 16% | percentage of competition from bead binding [11]: 87% | percentage of competition from bead binding [12]: 52% | percentage of competition from bead binding [13]: 34% | percentage of competition from bead binding [14]: 11% | percentage of competition from bead binding [15]: 18% | percentage of competition from bead binding [16]: 8% | inhibition at 100 µM [17]: < 50% | percentage of competition from bead binding [18]: 38% | percentage of competition from bead binding [19]: 33% | percentage of competition from bead binding [20]: 11% | percentage of competition from bead binding [21]: 9% | percentage of competition from bead binding [22]: 27% | percentage of competition from bead binding [23]: 11% | percentage of competition from bead binding [24]: 77% | percentage of competition from bead binding [25]: 29% | percentage of competition from bead binding [26]: 16% | Ki [27]: 39.4 nM | inhibition at 100 µM [5]: < 50% | percentage of competition from bead binding [28]: -5% | binding to MTHFS [29]: bound MTHFS

Nc1nc(O)c2c(CCc3ccccc3)c[nH]c2n1 [compound 5]
percentage of competition from bead binding [6]: 80% | percentage of competition from bead binding [7]: -34% | percentage of competition from bead binding [8]: -24% | percentage of competition from bead binding [9]: 65% | percentage of competition from bead binding [10]: 93% | percentage of competition from bead binding [11]: 6% | percentage of competition from bead binding [12]: 50% | percentage of competition from bead binding [13]: 49% | percentage of competition from bead binding [14]: -41% | percentage of competition from bead binding [15]: 15% | percentage of competition from bead binding [16]: -71% | percentage of competition from bead binding [18]: 70% | percentage of competition from bead binding [19]: 77% | percentage of competition from bead binding [20]: 60% | percentage of competition from bead binding [21]: -22% | percentage of competition from bead binding [22]: 51% | percentage of competition from bead binding [23]: 54% | percentage of competition from bead binding [24]: 61% | percentage of competition from bead binding [25]: 61% | percentage of competition from bead binding [26]: 49% | abundance relative to vehicle ([30]; protein TB427.02.1850): 0.89 | abundance relative to vehicle ([30]; protein TB427.06.4760): 1.04 | abundance relative to vehicle ([30]; protein TB427.07.3620): 1.03 | abundance relative to vehicle ([30]; protein TB427.08.1880): 0.84 | percentage of competition from bead binding [28]: 5%
